Test results published in PubChem BioAssay (NCI).
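Five compound concentrations were applied to cells in 96-well plates for 48 hours; endpoints were derived by simple linear interpolation of the resulting dose-response curve. At the TGI there is no net growth.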

These molecules were tested on HL-60(TB) leukemia (assay: inhibition of tumour cell growth, NCI panel, 48 h).

`C(=N\c1cc2cc(Sc3ccccc3)ccc2[nH]1)/c1ccccc1` and `CN(C)c1ccc(C2C(Cl)C(=O)N2NC(=O)c2c(Cl)c(Cl)c(Cl)c(Cl)c2-c2nc3ccccc3[nH]2)cc1` (stereo unspecified) cannot be ordered by TGI: over 12.5 µM for the first, 28.8 µM for the second.

With `CCOc1cc(NC(C)=O)ccc1C(=O)NNS(=O)(=O)c1ccc(Cl)cc1Cl` the TGI was over 50 µM.

What follows are molecules tested on HOP-62 NSCLC (assay: inhibition of tumour cell growth, NCI panel, 48 h).

First: CCOC(=O)CCC(C(=O)OCC)n1nc2ccc(Nc3c(C)[n+]([O-])c4ccc(Cl)cc4[n+]3[O-])cc2n1 (stereo unspecified)
Second: CCOc1cc(NC(C)=O)ccc1C(=O)NNS(=O)(=O)c1ccc(Cl)cc1Cl
The TGI of the first is lower: 40.4 µM for the first, over 50 µM for the second.

For `C(=N\c1cc2cc(Sc3ccccc3)ccc2[nH]1)/c1ccccc1`, the TGI was over 12.5 µM.

What follows are molecules tested on HOP-92 NSCLC (assay: inhibition of tumour cell growth, NCI panel, 48 h).

Compared with `CCC(=O)Nc1cccc(NC(=O)c2c(Cl)c(Cl)c(Cl)c(Cl)c2-c2nc3ccccc3[nH]2)c1`, `CN(C)c1ccc(C2C(Cl)C(=O)N2NC(=O)c2c(Cl)c(Cl)c(Cl)c(Cl)c2-c2nc3ccccc3[nH]2)cc1` (stereo unspecified) is 2.8-fold lower in TGI: 66.5 µM for the first, 23.9 µM for the second.

`CCOC(=O)CCC(C(=O)OCC)n1nc2ccc(Nc3c(C)[n+]([O-])c4ccc(Cl)cc4[n+]3[O-])cc2n1` (stereo unspecified) and `CCOc1cc(NC(C)=O)ccc1C(=O)NNS(=O)(=O)c1ccc(Cl)cc1Cl` cannot be ordered by TGI: 71.4 µM for the first, over 50 µM for the second.

Work on `C(=N\c1cc2cc(Sc3ccccc3)ccc2[nH]1)/c1ccccc1` yielded a TGI of over 12.5 µM.

What follows are molecules tested on HS 578T breast (assay: inhibition of tumour cell growth, NCI panel, 48 h).

`CCC(=O)Nc1cccc(NC(=O)c2c(Cl)c(Cl)c(Cl)c(Cl)c2-c2nc3ccccc3[nH]2)c1` and `CN(C)c1ccc(C2C(Cl)C(=O)N2NC(=O)c2c(Cl)c(Cl)c(Cl)c(Cl)c2-c2nc3ccccc3[nH]2)cc1` (stereo unspecified) cannot be ordered by TGI: over 100 µM for the first, over 100 µM for the second.

`CCOC(=O)CCC(C(=O)OCC)n1nc2ccc(Nc3c(C)[n+]([O-])c4ccc(Cl)cc4[n+]3[O-])cc2n1` (stereo unspecified) and `CCOc1cc(NC(C)=O)ccc1C(=O)NNS(=O)(=O)c1ccc(Cl)cc1Cl` cannot be ordered by TGI: 58.3 µM for the first, over 50 µM for the second.

`C(=N\c1cc2cc(Sc3ccccc3)ccc2[nH]1)/c1ccccc1` was tested, and the TGI was over 12.5 µM.

The molecules below were run on HT29 colon (assay: inhibition of tumour cell growth, NCI panel, 48 h).

Compared with `CCC(=O)Nc1cccc(NC(=O)c2c(Cl)c(Cl)c(Cl)c(Cl)c2-c2nc3ccccc3[nH]2)c1`, `CN(C)c1ccc(C2C(Cl)C(=O)N2NC(=O)c2c(Cl)c(Cl)c(Cl)c(Cl)c2-c2nc3ccccc3[nH]2)cc1` (stereo unspecified) is lower in TGI: over 100 µM for the first, 68.9 µM for the second.

`CCOC(=O)CCC(C(=O)OCC)n1nc2ccc(Nc3c(C)[n+]([O-])c4ccc(Cl)cc4[n+]3[O-])cc2n1` (stereo unspecified) and `CCOc1cc(NC(C)=O)ccc1C(=O)NNS(=O)(=O)c1ccc(Cl)cc1Cl` cannot be ordered by TGI: over 100 µM for the first, over 50 µM for the second.

For `C(=N\c1cc2cc(Sc3ccccc3)ccc2[nH]1)/c1ccccc1`, the TGI was over 12.5 µM.

The molecules below were run on IGROV1 ovarian (assay: inhibition of tumour cell growth, NCI panel, 48 h).

Going from `CCC(=O)Nc1cccc(NC(=O)c2c(Cl)c(Cl)c(Cl)c(Cl)c2-c2nc3ccccc3[nH]2)c1` to `CN(C)c1ccc(C2C(Cl)C(=O)N2NC(=O)c2c(Cl)c(Cl)c(Cl)c(Cl)c2-c2nc3ccccc3[nH]2)cc1` (stereo unspecified), the TGI falls from over 100 µM to 17.2 µM.

`CCOC(=O)CCC(C(=O)OCC)n1nc2ccc(Nc3c(C)[n+]([O-])c4ccc(Cl)cc4[n+]3[O-])cc2n1` (stereo unspecified) and `CCOc1cc(NC(C)=O)ccc1C(=O)NNS(=O)(=O)c1ccc(Cl)cc1Cl` cannot be ordered by TGI: over 100 µM for the first, over 50 µM for the second.

Each molecule was assayed on K-562 leukemia (assay: inhibition of tumour cell growth, NCI panel, 48 h).

`CCC(=O)Nc1cccc(NC(=O)c2c(Cl)c(Cl)c(Cl)c(Cl)c2-c2nc3ccccc3[nH]2)c1` and `CN(C)c1ccc(C2C(Cl)C(=O)N2NC(=O)c2c(Cl)c(Cl)c(Cl)c(Cl)c2-c2nc3ccccc3[nH]2)cc1` (stereo unspecified) cannot be ordered by TGI: over 100 µM for the first, over 100 µM for the second.

First: CCOC(=O)CCC(C(=O)OCC)n1nc2ccc(Nc3c(C)[n+]([O-])c4ccc(Cl)cc4[n+]3[O-])cc2n1 (stereo unspecified)
Second: CCOc1cc(NC(C)=O)ccc1C(=O)NNS(=O)(=O)c1ccc(Cl)cc1Cl
The TGI of the first is higher: over 100 µM for the first, 21.4 µM for the second.

With `C(=N\c1cc2cc(Sc3ccccc3)ccc2[nH]1)/c1ccccc1` the TGI was over 12.5 µM.

What follows are molecules tested on KM12 colon (assay: inhibition of tumour cell growth, NCI panel, 48 h).

First: CCC(=O)Nc1cccc(NC(=O)c2c(Cl)c(Cl)c(Cl)c(Cl)c2-c2nc3ccccc3[nH]2)c1
Second: CN(C)c1ccc(C2C(Cl)C(=O)N2NC(=O)c2c(Cl)c(Cl)c(Cl)c(Cl)c2-c2nc3ccccc3[nH]2)cc1 (stereo unspecified)
The TGI of the first is higher: over 100 µM for the first, 48.4 µM for the second.

`CCOC(=O)CCC(C(=O)OCC)n1nc2ccc(Nc3c(C)[n+]([O-])c4ccc(Cl)cc4[n+]3[O-])cc2n1` (stereo unspecified) and `CCOc1cc(NC(C)=O)ccc1C(=O)NNS(=O)(=O)c1ccc(Cl)cc1Cl` cannot be ordered by TGI: over 100 µM for the first, over 50 µM for the second.

With `C(=N\c1cc2cc(Sc3ccccc3)ccc2[nH]1)/c1ccccc1` the TGI was over 12.5 µM.

Each molecule was assayed on LOX IMVI melanoma (assay: inhibition of tumour cell growth, NCI panel, 48 h).

Going from `CCC(=O)Nc1cccc(NC(=O)c2c(Cl)c(Cl)c(Cl)c(Cl)c2-c2nc3ccccc3[nH]2)c1` to `CN(C)c1ccc(C2C(Cl)C(=O)N2NC(=O)c2c(Cl)c(Cl)c(Cl)c(Cl)c2-c2nc3ccccc3[nH]2)cc1` (stereo unspecified), the TGI falls from over 100 µM to 30 µM.

Going from `CCOC(=O)CCC(C(=O)OCC)n1nc2ccc(Nc3c(C)[n+]([O-])c4ccc(Cl)cc4[n+]3[O-])cc2n1` (stereo unspecified) to `CCOc1cc(NC(C)=O)ccc1C(=O)NNS(=O)(=O)c1ccc(Cl)cc1Cl`, the TGI rises from 30 µM to over 50 µM.

For `C(=N\c1cc2cc(Sc3ccccc3)ccc2[nH]1)/c1ccccc1`, the TGI was over 12.5 µM.

The molecules below were run on M14 melanoma (assay: inhibition of tumour cell growth, NCI panel, 48 h).

Compared with `CCC(=O)Nc1cccc(NC(=O)c2c(Cl)c(Cl)c(Cl)c(Cl)c2-c2nc3ccccc3[nH]2)c1`, `CN(C)c1ccc(C2C(Cl)C(=O)N2NC(=O)c2c(Cl)c(Cl)c(Cl)c(Cl)c2-c2nc3ccccc3[nH]2)cc1` (stereo unspecified) is lower in TGI: over 100 µM for the first, 51.7 µM for the second.

`CCOC(=O)CCC(C(=O)OCC)n1nc2ccc(Nc3c(C)[n+]([O-])c4ccc(Cl)cc4[n+]3[O-])cc2n1` (stereo unspecified) and `CCOc1cc(NC(C)=O)ccc1C(=O)NNS(=O)(=O)c1ccc(Cl)cc1Cl` cannot be ordered by TGI: over 100 µM for the first, over 50 µM for the second.

`C(=N\c1cc2cc(Sc3ccccc3)ccc2[nH]1)/c1ccccc1` gave a TGI of over 12.5 µM.

The molecules below were run on MALME-3M melanoma (assay: inhibition of tumour cell growth, NCI panel, 48 h).

First: CCC(=O)Nc1cccc(NC(=O)c2c(Cl)c(Cl)c(Cl)c(Cl)c2-c2nc3ccccc3[nH]2)c1
Second: CN(C)c1ccc(C2C(Cl)C(=O)N2NC(=O)c2c(Cl)c(Cl)c(Cl)c(Cl)c2-c2nc3ccccc3[nH]2)cc1 (stereo unspecified)
The TGI of the first is higher: over 100 µM for the first, 36.3 µM for the second.

`CCOC(=O)CCC(C(=O)OCC)n1nc2ccc(Nc3c(C)[n+]([O-])c4ccc(Cl)cc4[n+]3[O-])cc2n1` (stereo unspecified) and `CCOc1cc(NC(C)=O)ccc1C(=O)NNS(=O)(=O)c1ccc(Cl)cc1Cl` cannot be ordered by TGI: over 100 µM for the first, over 50 µM for the second.

Molecule `C(=N\c1cc2cc(Sc3ccccc3)ccc2[nH]1)/c1ccccc1` has a TGI of over 12.5 µM.

These molecules were tested on MCF7 breast (assay: inhibition of tumour cell growth, NCI panel, 48 h).

Compared with `CCC(=O)Nc1cccc(NC(=O)c2c(Cl)c(Cl)c(Cl)c(Cl)c2-c2nc3ccccc3[nH]2)c1`, `CN(C)c1ccc(C2C(Cl)C(=O)N2NC(=O)c2c(Cl)c(Cl)c(Cl)c(Cl)c2-c2nc3ccccc3[nH]2)cc1` (stereo unspecified) is lower in TGI: over 100 µM for the first, 23.1 µM for the second.

`CCOC(=O)CCC(C(=O)OCC)n1nc2ccc(Nc3c(C)[n+]([O-])c4ccc(Cl)cc4[n+]3[O-])cc2n1` (stereo unspecified) and `CCOc1cc(NC(C)=O)ccc1C(=O)NNS(=O)(=O)c1ccc(Cl)cc1Cl` cannot be ordered by TGI: 65.8 µM for the first, over 50 µM for the second.

`C(=N\c1cc2cc(Sc3ccccc3)ccc2[nH]1)/c1ccccc1` showed a TGI of over 12.5 µM.

The molecules below were run on MDA-MB-435 (assay: inhibition of tumour cell growth, NCI panel, 48 h).

`CCC(=O)Nc1cccc(NC(=O)c2c(Cl)c(Cl)c(Cl)c(Cl)c2-c2nc3ccccc3[nH]2)c1` and `CN(C)c1ccc(C2C(Cl)C(=O)N2NC(=O)c2c(Cl)c(Cl)c(Cl)c(Cl)c2-c2nc3ccccc3[nH]2)cc1` (stereo unspecified) cannot be ordered by TGI: over 100 µM for the first, over 100 µM for the second.

First: CCOC(=O)CCC(C(=O)OCC)n1nc2ccc(Nc3c(C)[n+]([O-])c4ccc(Cl)cc4[n+]3[O-])cc2n1 (stereo unspecified)
Second: CCOc1cc(NC(C)=O)ccc1C(=O)NNS(=O)(=O)c1ccc(Cl)cc1Cl
The TGI of the first is higher: over 100 µM for the first, 45.1 µM for the second.

Work on `C(=N\c1cc2cc(Sc3ccccc3)ccc2[nH]1)/c1ccccc1` yielded a TGI of over 12.5 µM.

Each molecule was assayed on MDA-N (assay: inhibition of tumour cell growth, NCI panel, 48 h).

First: CCC(=O)Nc1cccc(NC(=O)c2c(Cl)c(Cl)c(Cl)c(Cl)c2-c2nc3ccccc3[nH]2)c1
Second: CN(C)c1ccc(C2C(Cl)C(=O)N2NC(=O)c2c(Cl)c(Cl)c(Cl)c(Cl)c2-c2nc3ccccc3[nH]2)cc1 (stereo unspecified)
The TGI of the first is higher: over 100 µM for the first, 55.8 µM for the second.

Compared with `CCOC(=O)CCC(C(=O)OCC)n1nc2ccc(Nc3c(C)[n+]([O-])c4ccc(Cl)cc4[n+]3[O-])cc2n1` (stereo unspecified), `CCOc1cc(NC(C)=O)ccc1C(=O)NNS(=O)(=O)c1ccc(Cl)cc1Cl` is lower in TGI: over 100 µM for the first, 23.1 µM for the second.

For `C(=N\c1cc2cc(Sc3ccccc3)ccc2[nH]1)/c1ccccc1`, the TGI was over 12.5 µM.

What follows are molecules tested on MOLT-4 leukemia (assay: inhibition of tumour cell growth, NCI panel, 48 h).

`CCC(=O)Nc1cccc(NC(=O)c2c(Cl)c(Cl)c(Cl)c(Cl)c2-c2nc3ccccc3[nH]2)c1` was tested, and the TGI was over 100 µM.
